From PubChem BioAssay (NCI) come the findings set out here.

Common to all, as to assay: NCI anticancer screen, dose series, 48 h
In assay [1] the test system is SW-620 colon.
For assay [2], the system named is HCT-116 colon.
Assay [3] relates to CAKI-1 renal.
Assay [4] deals with SK-MEL-5 melanoma.
For assay [5], the system named is SK-MEL-2 melanoma.
Assay [6] deals with LOX IMVI melanoma.
The test system of assay [7] is U251 CNS.
Assay [8] concerns K-562 leukemia.
In assay [9] the test system is SF-268 CNS.
Assay [10] deals with HT29 colon.
In assay [11] the test system is HS 578T breast.
Assay [12] has as its system HL-60(TB) leukemia.
For assay [13], the system named is SK-MEL-28 melanoma.
For assay [14], the system named is TK-10 renal.
Assay [15] deals with MCF7 breast.
The test system of assay [16] is SF-295 CNS.

Several values for one entry are separate records, joined by “and”; a condition that tells them apart may be missing. Equal values may be shown once.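 Protocol summary: plate cells (96-well), add compound at 5 concentrations, incubate 48 h, interpolate endpoints linearly. GI50 = concentration required for 50% inhibition of growth. Definition used: TGI = concentration required for complete inhibition of growth.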 Some results are limits rather than exact numbers.

As to `CCCOC(=O)c1cc(C(=CCC[C@H]2CC[C@@]3(C)[C@@H](CC[C@@H]4[C@@H]3CC[C@]3(C)[C@@H](C(C)CCCC(C)C)CC[C@@H]43)C2)c2cc(Cl)c(O)c(C(=O)OCCC)c2)cc(Cl)c1O` (some centres undefined), the TGI in assay [1], in assay [2], in assay [3], in assay [4], in assay [5] and in assay [6] was above 50 µM in each case. Also, the TGI in assay [7] is above 50 µM; in [8] it was above 5 µM; in [9], above 50 µM; in assay [10], above 50 µM; in [11] it was above 50 µM; in [12], above 50 µM.

Take `O=c1nc2n(CCO)c(-c3ccccc3)c(-c3ccccc3)nc-2c(=O)[nH]1`: the TGI in [13], in assay [1], in assay [2], in assay [3], in assay [14] and in assay [4] was above 100 µM throughout. The TGI in assay [5], in assay [6], in assay [7], in [8], in assay [9] and in assay [15] was above 100 µM in each case. The TGI in assay [10], in assay [11] and in [16] was above 100 µM each time.

For `CCn1c(=O)c2c(=O)[nH][nH]c2c2ccccc21`, the TGI in assay [13], in [1], in assay [2], in assay [14], in [4] and in assay [6] was above 100 µM throughout. In addition, the TGI in assay [7], in assay [8], in assay [15], in assay [10], in assay [11] and in assay [12] was above 100 µM in each case. The compound further gave a TGI in [16] above 100 µM.

On to `C/C(C=O)=N\Nc1cc(C)c2ccccc2n1`, for which the TGI in assay [13] came to 39.1 µM; in [1], 72.8 µM; in [2] it was 27.6 µM; in assay [3], 30.7 µM; in assay [14] it was 29.5 µM; in [4], 29.9 µM. In addition, the TGI in [5] amounted to 37.8 µM; in [6] it was 29.4 µM; in assay [7], 31.2 µM; in assay [8], 46.6 µM; in assay [9], 43.2 µM; in assay [15] it was 29.5 µM. Moreover, the TGI in assay [10] was 30.8 µM; in [11], 46.2 µM; in [16], 39.4 µM.

Consider `CC1C2CC(C(C3C(=O)C4CC3C(C)(C)C4C)C2=O)C1(C)C` (centres undefined), for which the TGI in assay [13], in assay [1], in [2], in [3], in assay [14] and in assay [4] was above 100 µM in each case. Besides, the TGI in assay [7], in assay [8], in [9], in [15], in [10] and in assay [11] was above 100 µM in each case. The TGI in assay [12] and in assay [16] was above 100 µM each time.

Regarding `CSc1nc(C)cc(Nc2ccc(O)c(CN3CCCCC3)c2)n1`, the TGI in [13] is 79.6 µM; in assay [1] it was above 100 µM; in assay [2] it was above 100 µM; in assay [3] it was above 100 µM; in [4] it was above 100 µM; in assay [6], above 100 µM. Moreover, the TGI is above 100 µM in assay [8]; above 100 µM in [9]; above 100 µM in [15]; 60.1 µM in assay [10]; above 100 µM in assay [11]; above 100 µM in assay [16].

For `CC(=NNC(=S)Nc1ccccc1C)c1cccc(C(C)=NNC(=S)Nc2ccccc2C)n1`, the TGI in [13], in assay [1], in [2], in assay [3], in [14] and in assay [4] was above 100 µM throughout. Also, the TGI in assay [5], in [6], in [7], in assay [8], in assay [9] and in assay [15] was above 100 µM each time. For the same compound, the TGI in assay [10], in [12] and in [16] was above 100 µM each time.

`NN/C(=N\S(=O)(=O)c1cc(Cl)c(Oc2ccc([N+](=O)[O-])cc2Cl)c(Cl)c1)Nc1ccc(Cl)cc1`: the TGI in [13] is 48.3 µM; in [1] it was above 100 µM; in [2], 29.1 µM; in [3], 40.7 µM; in assay [14], 56.6 µM; in assay [4], 29.4 µM. Further, the TGI in assay [5] is 35.3 µM; in assay [6], 45 µM; in assay [7] it was 30.8 µM; in [8] it was above 100 µM; in assay [9] it was 34.2 µM; in assay [15], 58.4 µM. For the same compound, the TGI in assay [10] stood at 39.1 µM; in assay [16], 50.4 µM.

`CCCCCCCCCC(=O)OCC1(CO)C/C(=C/CC(C(C)C)C(C)C)C(=O)O1` (centres undefined): the TGI in [13] was above 100 µM; in assay [1], 81.6 µM; in [2], above 100 µM; in assay [3], 56.6 µM; in [14], above 100 µM; in assay [4], above 100 µM. Also, the TGI in [5] is above 100 µM; in assay [6], above 100 µM; in [7], 89.4 µM; in [8], 97 µM; in assay [9] it was above 100 µM; in assay [15], above 100 µM. For the same compound, the TGI in [10], in assay [11] and in assay [16] was above 100 µM in each case.

As to `O=C(/C=C/c1ccc(O)c(O)c1)NC(CO)C(=O)O` (centres undefined), the TGI in assay [13], in assay [1], in [2], in [3], in assay [14] and in assay [4] was above 100 µM throughout. The TGI in assay [5], in assay [6], in [7], in assay [8], in assay [9] and in assay [15] was above 100 µM throughout. The TGI in assay [10], in assay [11] and in [16] was above 100 µM throughout.

With `COC(=O)/C=C/c1cc(OC)c2c(c1)C(C(=O)OC)C(c1ccc(OC)c(OC)c1)O2` (centres undefined), the TGI in assay [13], in assay [1], in assay [2], in assay [3], in [14] and in assay [4] was above 100 µM each time. Also, the TGI in [5], in [6], in [7], in [8], in assay [9] and in assay [15] was above 100 µM throughout. For the same compound, the TGI in assay [10], in assay [12] and in [16] was above 100 µM throughout. Moreover, the GI50 in [9] was 70.7 µM and 10.7 µM.

For `CCOC(=O)[C@H]1C[C@@H](C(=O)c2ccccc2)N2N=C(c3ccc(Br)cc3)C=C[C@H]12`, the TGI in assay [13], in assay [1], in [2], in [3], in [14] and in [5] was above 100 µM in each case. Besides, the TGI in assay [6], in assay [7], in [8], in assay [9], in assay [15] and in [11] was above 100 µM throughout. This compound had a TGI in assay [16] above 100 µM.

As for `CC(=O)OCC(OC(C)=O)C(OC(C)=O)C(/C=N/N(C(C)=O)S(=O)(=O)c1ccc(/C=C2\NC(=O)NC2=O)cc1)OC(C)=O` (centres undefined), the TGI in [1], in [2], in assay [3], in assay [14], in assay [4] and in assay [5] was above 100 µM in each case. The TGI in assay [7], in [8], in assay [9], in assay [15], in assay [10] and in assay [11] was above 100 µM in each case. This compound displayed a TGI in [16] above 100 µM.

`COc1ccc(/C=C/C(=O)NCC(NC(=O)/C=C/c2ccc(OC)c(OC)c2)C(=O)O)cc1OC` (centres undefined): the TGI in assay [13], in [1], in assay [2], in assay [3], in [14] and in assay [4] was above 100 µM in each case. The TGI in assay [5], in assay [6], in assay [7], in assay [8], in [9] and in assay [15] was above 100 µM each time. In addition, the TGI in [10], in [11] and in assay [16] was above 100 µM throughout.

Regarding `N[C@@H]1C[C@H](N)c2c(Cl)sc(Cl)c21`, the TGI in assay [13], in assay [1], in assay [2], in [3], in [4] and in assay [5] was above 100 µM throughout. Further, the TGI in assay [6], in assay [7], in [8], in [15] and in assay [16] was above 100 µM in each case.

As to `CSC1=N/C(=C\c2cccs2)C(=O)N1CN1CCCCC1`, the TGI in [13], in assay [1], in [2], in [14], in [4] and in [5] was above 100 µM each time. Besides, the TGI is 75.6 µM in [6]; above 100 µM in [7]; above 100 µM in assay [8]; above 100 µM in assay [9]; above 100 µM in assay [15]; above 100 µM in assay [10]. The TGI in assay [11] and in assay [16] was above 100 µM throughout.

As for `Cn1c(=O)nc2n(CCO)c(-c3ccccc3)c(-c3ccccc3)nc-2c1=O`, the TGI in assay [13], in [1], in assay [2], in assay [3], in assay [14] and in [4] was above 100 µM in each case. Moreover, the TGI in assay [5], in assay [6], in assay [7], in [8], in assay [9] and in [10] was above 100 µM each time. Moreover, the TGI in assay [11] and in assay [16] was above 100 µM each time.

In the case of `CC(C#N)Nc1ccc(Oc2ccc(C(C)(C)c3ccc(Oc4ccc(NC(C)C#N)cc4)cc3)cc2)cc1` (centres undefined), the TGI in [13], in assay [1], in [2], in assay [3], in [14] and in assay [4] was above 100 µM each time. Moreover, the TGI in [5], in assay [6], in [7], in assay [8], in assay [9] and in assay [15] was above 100 µM throughout. In addition, the results for the TGI in assay [10], in [11] and in [16] were above 100 µM, 94 µM and above 100 µM, respectively.

`C1CSCC2(COC2)CS1`: the TGI in [13], in assay [1], in [2], in [14], in [4] and in assay [6] was above 100 µM throughout. Further, the TGI in assay [7], in assay [8], in [9], in assay [15], in assay [10] and in [11] was above 100 µM each time. Moreover, the TGI in [16] was above 100 µM.
